Tested on: cataract formation in galactocemic rats
Assay: in vivo dose response by intubation (per oral) in galactocemic rats, cataract (vacuole) formation
Design: species or system Charles River CD (Sprague-Dawley derived) male rats
Protocol: B. In vivo dose response studies were conducted to test the in vivo activity of the following compounds by intubation (per oral) in galactocemic rats on a 30% galactose diet previously described:
Stock suspensions of the test compounds and all dilutions of the compound were formulated with 0.03% by weight Tween 80.
Healthy, Charles River CD (outbred albino, Sprague-Dawley derived) male rats, aged 20-30 days, without observable ocular defects and ranging in weight from 35-45 grams, were acclimated to experimental conditions (in quarantine) for two days prior to beginning the study.
Rats were individually assigned to one of twenty-three groups according to a random number schedule. Two rats, belonging to the same drug-diet treatment group, were housed per cage. Treatment and control groups consisted of six (6) rats each with no replacement in the event of death, and were designated as follows:
Lenses of all eyes were examined with a hand-held ophthalmoscope in the early stages of cataract development and a penlight for the stages, snowflake-like, snowflake, and nuclear cataract. Lens grading occurred every day for the first ten study days, and then every other day until study Day 14.
The relative potency determination was made at 7 drug levels over half log dose intervals. The response (percent cataracts formed and/or the time to cataract formation) was plotted against mg/kg and/or moles/kg.
The study was directed to the suppression and/or elimination of the initial stages of cataract development characterized by vacuoles or snowflake-likeopacities only. It was assumed therefore that suppression and/or elimination of vacuoles or lens opacification by the test drugs affects the transport, absorption and/or metabolism of galactose in such a manner as to prevent subsequent osmotic disturbances normally leading to tissue degeneration and advanced cataract. Advanced cataract defined as stages 2-4 of the Sipple classification was assumed to be of secondary importance to the etiology of cataract inhibition.
In the event where cataract stage other than vacuole formed, such as snowflake-like opacities, this cataract was counted similarly as vacuole in percent cataract formation.
This study yielded this expected effect in the control groups.
All animals were fed Purina Laboratory Chow and water, ad libitum, for the two day acclimation period. All drugs were dosed orally by intubation using an animal feeding needle (Popper and Sons), 18 or 20 gauge, attached to a 1 or 3 ml syringe. Once the dosing time schedule was established, the schedule was followed throughout the study to compensate for any diurnal variation.
The animals were kept on a twelve hour day/night cycle. The temperature and humidity were determined each day at the scheduled dosing time of 1:00 p.m.
The animals were weighed every other day and adjustments to dosage amounts to compensate for weight gain were made each day prior to the dose time. All food was routinely withheld from all animal groups for four hours (9:00 a.m.) prior to the drug dose and restored two hours (3:00 p.m.) post-dose. Otherwise sufficient amounts of chow or diet mixture were maintained in the food hopper to allow the animals to eat ad libitum. There were two days of drug dosage with the animals remaining on Purina Laboratory Chow (Days 1 and 2). The 30% galactose diet mixture was introduced to the animals two hours post-dose on Day 3 which constituted Day 1 of the study.
All eyes were examined with a hand-held ophthalmoscope and/or penlight at the times designated in the Experimental Design section.
It has been found in previous studies that dilation of the eye with a mydriactic (i.e. Mydriacyl) is not necessary for accurate grading, due to the semi-transparent nature of the rat iris. In the early stages (i.e., grades -, ±, and +) the lens was observed by reflecting the ophthalmoscope beam off the retina back through the lens and iris. Using this technique, vacuoles appear as dark, almost opaque patches. […]

[1] = relative to Sarges Racemic, observation day 12, 95% confidence limits

`O=C1NC(=O)C2(N1)c1ccccc1-c1ccc(F)cc12` (racemic) [Compound L, dl-Spiro(2-fluorofluoren-9,4'-imidazolidine)-2',5'-dione] was tested, and the “Percent of Rat Eyes With at Least Vacuoles Formed” value (shortened to “Percent”) (4.0 mg/kg p.o., Day 8, listed as 2-fluoro) was 0%, the “Percent” value (4.0 mg/kg p.o., Day 9) was 0.0% and the “Percent” value (4.0 mg/kg p.o., Day 9, listed as 2-fluoro) was 0%. For the same compound, the “Percent” value (4.0 mg/kg p.o., Day 10) was 0.0%, the “Percent” value (4.0 mg/kg p.o., Day 10, listed as 2-fluoro) was 0% and the “Percent” value (4.0 mg/kg p.o., Day 12) was 0.0%. For the same compound, the “Percent” value (4.0 mg/kg p.o., Day 12, listed as 2-fluoro) was 0%, the “Percent” value (4.0 mg/kg p.o., Day 14) was 0.0% and the “Percent” value (4.0 mg/kg p.o., Day 14, listed as 2-fluoro) was 0%. For the same compound, the “Percent” value (12.6 mg/kg p.o., Day 0) was 0%, the “Percent” value (12.6 mg/kg p.o., Day 1) was 0% and the “Percent” value (12.6 mg/kg p.o., Day 2) was 0%. The “Percent” value (12.6 mg/kg p.o., Day 3) was 0%, the “Percent” value (12.6 mg/kg p.o., Day 4) was 0% and the “Percent” value (12.6 mg/kg p.o., Day 5) was 0%. The “Percent” value (12.6 mg/kg p.o., Day 6) was 0.0%, the “Percent” value (12.6 mg/kg p.o., Day 6, listed as 2-fluoro) was 0% and the “Percent” value (12.6 mg/kg p.o., Day 7) was 0.0%. The “Percent” value (12.6 mg/kg p.o., Day 7, listed as 2-fluoro) was 0%, the “Percent” value (12.6 mg/kg p.o., Day 8) was 0.0% and the “Percent” value (12.6 mg/kg p.o., Day 8, listed as 2-fluoro) was 0%. For the same compound, the “Percent” value (12.6 mg/kg p.o., Day 9) was 0.0%, the “Percent” value (12.6 mg/kg p.o., Day 9, listed as 2-fluoro) was 0% and the “Percent” value (12.6 mg/kg p.o., Day 10) was 0.0%. The “Percent” value (12.6 mg/kg p.o., Day 10, listed as 2-fluoro) was 0%, the “Percent” value (12.6 mg/kg p.o., Day 12) was 0.0% and the “Percent” value (12.6 mg/kg p.o., Day 12, listed as 2-fluoro) was 0%. For the same compound, the “Percent” value (12.6 mg/kg p.o., Day 14) was 0.0%, the “Percent” value (12.6 mg/kg p.o., Day 14, listed as 2-fluoro) was 0% and the “Percent” value (40 mg/kg p.o., Day 0) was 0%. The “Percent” value (40 mg/kg p.o., Day 1) was 0%, the “Percent” value (40 mg/kg p.o., Day 2) was 0% and the “Percent” value (40 mg/kg p.o., Day 3) was 0%. The “Percent” value (40 mg/kg p.o., Day 4) was 0%, the “Percent” value (40 mg/kg p.o., Day 5) was 0% and the “Percent” value (40 mg/kg p.o., Day 6) was 0.0%. For the same compound, the “Percent” value (40 mg/kg p.o., Day 6, listed as 2-fluoro) was 0%, the “Percent” value (40 mg/kg p.o., Day 7) was 0.0% and the “Percent” value (40 mg/kg p.o., Day 7, listed as 2-fluoro) was 0%. For the same compound, the “Percent” value (40 mg/kg p.o., Day 8) was 0.0%, the “Percent” value (40 mg/kg p.o., Day 8, listed as 2-fluoro) was 0% and the “Percent” value (40 mg/kg p.o., Day 9) was 0.0%. For the same compound, the “Percent” value (40 mg/kg p.o., Day 9, listed as 2-fluoro) was 0%, the “Percent” value (40 mg/kg p.o., Day 10) was 0.0% and the “Percent” value (40 mg/kg p.o., Day 10, listed as 2-fluoro) was 0%. For the same compound, the “Percent” value (40 mg/kg p.o., Day 12) was 0.0%, the “Percent” value (40 mg/kg p.o., Day 12, listed as 2-fluoro) was 0% and the “Percent” value (40 mg/kg p.o., Day 14) was 0.0%. The “Percent” value (40 mg/kg p.o., Day 14, listed as 2-fluoro) was 0%, the “activity in vivo relative to the Sarges compound” value (rat studies) was “unexpectedly and significantly more active” and the “Relative Potency (antilog)” value [1] was 4.58. The “log relative potency for eyes with vacuoles or more advanced cataracts” value [1] was 0.6605.
